Among the data in ChEMBL document CHEMBL1933019, “Cell-based and in-silico studies on the high intrinsic activity of two boron-containing salbutamol derivatives at the human β₂-adrenoceptor” (Bioorg Med Chem, 2012) are Ki and EC50 values, retold here.

For test [1], the target named is T1, Beta-2 adrenergic receptor (Homo sapiens, UniProt P07550). Kind of test: Displacement of [3H]-DHA from recombinant human beta2 adrenoceptor expressed in HEK293T cells. In kind it is cell-based, HEK-293T.
In test [2] the target is T1, Beta-2 adrenergic receptor. Kind of test: Agonist activity at recombinant human beta2 adrenoceptor expressed in HEK293T cells assessed as increase in IBMX-induced cAMP accumulation using [3H]-cAMP after 30 mins by liquid scintillation counting. In kind it is functional, cell-based, HEK-293T. On the technique in general: Cyclic AMP is a second messenger, typically raised through Gs and lowered through Gi signalling.

pEC50, pKi: −log10 of the molar value.

T1 sequence (P07550 whole entry): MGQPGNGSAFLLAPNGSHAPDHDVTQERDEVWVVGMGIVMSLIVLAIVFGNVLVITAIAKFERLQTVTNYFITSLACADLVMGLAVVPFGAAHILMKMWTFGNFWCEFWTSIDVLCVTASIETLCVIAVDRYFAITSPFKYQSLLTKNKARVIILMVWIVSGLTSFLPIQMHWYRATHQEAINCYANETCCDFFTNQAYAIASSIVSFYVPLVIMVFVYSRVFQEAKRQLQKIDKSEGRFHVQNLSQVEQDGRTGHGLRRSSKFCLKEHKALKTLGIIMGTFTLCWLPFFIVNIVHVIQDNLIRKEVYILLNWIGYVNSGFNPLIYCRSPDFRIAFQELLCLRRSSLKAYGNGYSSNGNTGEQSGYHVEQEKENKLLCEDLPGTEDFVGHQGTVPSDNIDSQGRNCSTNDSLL

For `CC(C)(C)NC[C@H](O)c1ccc2c(c1)C[OH+][B-](O)(O)O2`, the pKi (in general, the Ki on a negative log10 scale, so that one unit is a factor of ten) in test [1] is 5.41. In test [2], the pEC50 (commonly the EC50 on a negative log10 scale, so that one unit is a factor of ten) was 6.78.
On the same counts, the results for `CC(C)(C)NC[C@H](O)c1ccc2c(c1)C[OH+][B-](O)(c1ccccc1)O2` (some centres undefined) are 5.18 and 6.86.
